The source made the active and inactive calls. No rule for the calls is given here.

The target in the assay is Genome polyprotein (West Nile virus) (UniProt P06935). The assay is described as follows: inhibitors of WNV NS2B-NS3 protease, dose response, biochemical, confirmation (AID 653). The note with it: WNV NS2B-NS3 protease enzymatic assay, fluorescence.
Genome polyprotein (West Nile virus), sequence (P06935 1371-1501 limits assumed): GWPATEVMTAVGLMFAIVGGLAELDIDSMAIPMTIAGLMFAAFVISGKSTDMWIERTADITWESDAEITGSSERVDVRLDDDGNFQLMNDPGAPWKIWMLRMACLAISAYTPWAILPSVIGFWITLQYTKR
Genome polyprotein (West Nile virus), sequence (P06935 1502-1679 limits assumed): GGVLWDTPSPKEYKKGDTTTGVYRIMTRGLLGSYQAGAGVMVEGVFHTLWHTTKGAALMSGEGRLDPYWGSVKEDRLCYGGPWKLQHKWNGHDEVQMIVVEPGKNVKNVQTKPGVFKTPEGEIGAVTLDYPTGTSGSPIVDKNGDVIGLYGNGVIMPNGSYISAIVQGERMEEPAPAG

For the compound `COc1cccc(NC(=O)CSc2nc3n[nH]c(C)c3c(=N)n2-c2cccc(OC)c2)c1`, the IC50 – broadly, the point on the concentration scale where inhibition reaches its midpoint – was > 50 µM (inactive). For `C/C(CC1(O)C(=O)N(Cc2ccccc2)c2ccccc21)=N\O` (stereo not given), the IC50 was > 50 µM (inactive).

For the compound `COc1ccc(OC)c(C2C(C(N)=O)=C(C)Nc3nc(-c4cccc(Cl)c4)nn32)c1` (stereo not given), the IC50 was > 50 µM (inactive). Take `COC(=O)CSC1=C(C#N)C(c2ccc(C)cc2)C2=C(CCCC2=O)N1` (stereo not given): the IC50 is > 50 µM (inactive). Take `COc1ccc(N=CC2=C(O)CCCC2=O)cc1`: the half-maximal inhibitory concentration (IC50) was 34.1 µM.

The values are drawn from PubChem BioAssay AID653 (University of Pittsburgh Molecular Library Screening Center, 2007).
